Laboratory results taken from patent US20260109674A1, “ALLOSTERIC MODULATION OF MUSCARINIC ACETYLCHOLINE RECEPTOR EFFICACY” (The University of Toledo, priority 2022, published 2026).
Where two headings read alike, the source gives them in different places.

Experiments:
[1] = test system: wild-type zebrafish larvae; test: Maximum tolerated concentration (MTC) determination in zebrafish larvae; type: in vivo, Danio rerio; conditions: after 24-hour exposure; Table 3
Experimental: Determination of maximum tolerated concentration was completed by placing 5 days post fertilization (dpf) wild-type zebrafish larvae in a 24 well plate at 6 fish per well, and one compound concentration per well. […] Death was determined by the absence of heartbeat. Additional endpoints were used to assess toxicity at non-lethal concentrations such as startle capacity (poke stimulus), abnormalities in swimming behavior (loss of dorsoventral balance), and gross morphological deformities (bent body). […] The MTC determination was used to select three doses of each compound (low, medium, high dose) to be used in behavioral assays.

[2] = test system: wild-type zebrafish larvae; test: General locomotor assay in zebrafish larvae (locomotor activity, repetitive behaviors); type: in vivo, Danio rerio; conditions: Table 3; tested at 1 μM due to toxicity at 10 μM (footnote a)
Experimental: Five days post fertilization (dpf) zebrafish larvae were exposed to a range of nonlethal concentrations of the compounds in a 24-well plate with appropriate controls. The movement of each larval zebrafish was monitored with the Noldus behavior recording system (Noldus Information Technology, Leesburg VA) and quantified using EthoVision® XT 15 software (Noldus Information Technology, Leesburg VA). The plate was immediately placed in the incubator for a 30-minute exposure period. After 30 minutes, the plate was transferred to the Noldus system and swimming behavior was recorded in 100% light for 30 minutes to measure spontaneous swimming behavior. The light was switched off for 10 minutes (dark period) and then switched on for 10 minutes (light period), which was then repeated for two additional cycles. In total, the larvae were exposed to three cycles of alternating 10-minute dark and light periods (100% darkness-to-100% light). […]
All data for exposure and the behavioral end points were analyzed by one-way ANOVA (factor: drug conc) followed by a Dunnett's multiple comparisons test for post hoc significance between drug concentration and control group. Statistically significant differences are noted as follows: *, p<0.05; **, p<0.01; ***, p<0.001.

[3] = molecular target: T1, M1 muscarinic receptors expressed in CHO cells (Homo sapiens, UniProt P11229); test: [3H]-arachidonic acid release screen with and without ACh and modulator; type: cell-based; conditions: for Modulation of ACh activity (in words): [3H]AA release, modulator 10 μM
T1 construct: expressed in transfected cells; host or cells: CHO (CHO-hM1, stably transfected)
T1 sequence (P11229 1-460): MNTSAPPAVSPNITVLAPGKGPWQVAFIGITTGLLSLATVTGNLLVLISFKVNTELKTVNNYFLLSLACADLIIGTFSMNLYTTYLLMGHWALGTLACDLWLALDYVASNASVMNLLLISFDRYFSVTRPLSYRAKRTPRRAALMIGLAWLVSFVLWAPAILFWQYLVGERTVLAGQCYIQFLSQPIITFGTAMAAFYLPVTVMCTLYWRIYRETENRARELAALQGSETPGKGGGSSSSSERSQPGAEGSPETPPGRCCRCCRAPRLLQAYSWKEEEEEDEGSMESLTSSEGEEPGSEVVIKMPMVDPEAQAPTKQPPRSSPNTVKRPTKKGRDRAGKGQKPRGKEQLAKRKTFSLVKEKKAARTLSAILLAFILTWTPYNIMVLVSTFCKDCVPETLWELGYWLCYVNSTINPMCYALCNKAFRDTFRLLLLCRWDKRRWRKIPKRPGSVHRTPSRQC
Experimental: CHO cells expressing human M1 muscarinic receptors were cultured at 37° C. in a 5% CO2 atmosphere in F12 medium supplemented with 5% fetal bovine serum, 100 units/mL penicillin, and 100 μg/mL streptomycin.
Measurement of [^3H]AA release was performed. Stably transfected CHO-hM1 or CHO-hM3 cells were seeded on 24-well plates (Greiner Bio-One GmbH, Frickenhausen, Germany) at a density of 5.0×10^4 cells/well in 0.5 ml of F-12 medium. Cells were incubated until they attached (approximately 3 h), followed by the addition of [^3H]AA to a final concentration of 0.05 μCi of [^3H]AA per well. The cells were then grown for 16 to 20 h before the assay was performed. [^3H]AA release was measured in Eagle's basal medium with 20 mM HEPES and 2 mg/ml fatty acid-free bovine serum albumin (EM-BSA). Cells were rinsed twice with EM-BSA, followed by the addition of EM-BSA media containing experimental agents and incubated for 1 h at 37° C. The assay was terminated by aspiration of the media, and the amount of [^3H]AA released was determined by liquid scintillation counting (Beckman-Coulter LS6500).
For some assays, pretreatment with phenoxybenzamine (POB) was employed, as indicated, to reduce the number of available receptors per cell. Stock POB was made up at 10 mM in ethanol and stored at −20° C. Each well was pretreated with 0.5 ml of the appropriate concentration in PBS with 1 mM CaCl2 and 1 mM MgCl2 (PBS++) for 30 min at 37° C., followed by 5 washes with PBS++. After pretreatment, the normal protocol was followed as above.
Tabulated [^3H]AA release data are represented as a fraction of maximal release in the presence of 100 μM ACh or as the fraction of release elicited by the appropriate concentration of ACh alone, as indicated dose-response curves were normalized to the maximal response of ACh without allosteric ligand. Some response curves were analyzed using the empirical four-parameter equation: […]
Disintegration per minute (DPM) values for a single compound were obtained in triplicate, and each compound was evaluated on three separate 24-well plates. The mean values for each condition from each of the three 24-well plates were used for the statistical analysis. The baseline mean was subtracted from each value, then normalized to the mean response produced by 100 μM ACh (set at 1.0). Statistical analyses were completed on the normalized values via one-way repeated measures ANOVA with Tukey's post hoc test. Statistically significant differences are noted as follows: *, p<0.05; **, p<0.01; ***, p<0.001.

[4] = 10 μM modulator, 0.1 μM ACh, Table 1
[5] = 10 μM modulator, 100 μM ACh, Table 1

Row | Structure (SMILES) | Maximum Tolerated Concentration [1] [µM] | Angular Velocity [2] | Total Distance Moved [2] | Variance of Turn Angle [2] | Ratio of response of ACh with modulator to response of ACh alone, 0.1 μM ACh [3] | Ratio of response of ACh with modulator to response of ACh alone, 100 μM ACh [3] | Stimulation of [3H]AA release, No ACh (fraction of stimulation above the control) ([3]; 10 μM modulator, Table 1) | Modulation of ACh activity (in words) [3] | Ratio of response of ACh with modulator to response of ACh alone, 0.1 μM ACh [3, 4] | Ratio of response of ACh with modulator to response of ACh alone, 100 μM ACh [3, 5]
1 | CCCCc1oc2ccccc2c1C(=O)c1cc(I)c(OCC[N+](CC)(CC)CC)c(I)c1 [Compound 2, N-ethylamiodarone, reference compound] | 1 | 128.9 ± 18.5 % of control | 95.8 ± 11.0 % of control | 97.6 ± 10.3 % of control | 0.17 ± 0.04 | 0.50 ± 0.03 | 0.04 ± 0.02 | NAM of mAChR efficacy | – | –
2 | CCCCc1oc2ccccc2c1C(=O)c1cc(I)c(O)c(I)c1 [Compound 3, reference compound] | 3 | 101.8 ± 19.2 % of control | 145.4 ± 21.7 % of control | 93.4 ± 9.4 % of control | – | – | 0.02 ± 0.00 | completely inactive | 0.42 ± 0.00 | 0.81 ± 0.07
3 | CCCCc1oc2ccccc2c1C(=O)c1ccc(O)cc1 [Compound 4, reference compound] | 0.3 | 105.7 ± 14.8 % of control | 56.7 ± 9.3 % of control | 115.8 ± 12.4 % of control | 0.49 ± 0.09 | 0.72 ± 0.04 | 0.03 ± 0.02 | completely inactive | – | –
4 | COc1c(F)cc(CN2C(=O)C(=O)c3ccccc32)cc1F [Compound 8g, 1-(3,5-difluoro-4-methoxybenzyl)indoline-2,3-dione] | 30 | – | – | – | – | – | 0.03 ± 0.01 | – | 1.33 ± 0.03 | 0.94 ± 0.02
5 | COc1ccc(CN2C(=O)C(=O)c3ccccc32)cc1F [Compound 8h, 1-(3-fluoro-4-methoxybenzyl)indoline-2,3-dione] | 30 | – | – | – | – | – | 0.04 ± 0.01 | – | 1.17 ± 0.02 | 1.03 ± 0.01
6 | O=C1C(=O)N(Cc2cc(F)c(F)c(F)c2)c2ccccc21 [Compound 8i, 1-(3,4,5-trifluorobenzyl)indoline-2,3-dione] | 10 | – | – | – | – | – | 0.07 ± 0.01 | – | 1.39 ± 0.06 | 1.05 ± 0.02
